Test [1] relates to THP-1 dual cells. The test is described as follows: Type 1 IFN activation assay (THP-1 dual cells, QUANTI-Luc). The class given is cell-based. Conditions: PMA-treated THP-1 dual cells, compound in digitonin PB buffer 30 min, then 24 h, expression level of IFN. The protocol: Plated THP-1 dual cells (Invivogen) as 100000 cells/well in a 96 well-plate, and then phorbol 12-myristate 13-acetate (PMA) was added and the final concentration of PMA was 30 ng/mL. After 24 h incubation, cells were washed with fresh medium for twice, and 3-folds dilution compounds were added to appropriate wells. The compounds were diluted by PB buffer (50 mM HEPES, 100 mM KCl, 3 mM MgCl2, 0.1 mM DTT, 85 mM sucrose, 1 mM ATP, 0.1 mM GTP, 0.2% o bovine serum albumin and 5 μg/ml digitonin) and the top dose was 10 μM, minimum dose was 0.0015 μM. The cells were incubated for 30 min, and then washed with fresh medium for twice again. Add fresh medium, and the cells were incubated for additional 24 h. After incubation, 10 ul supermant and 50 μL QUANTI-Luc (Invivogen) was add to a 96 well-plate, fluorescence was read with TECAN. The express level of IFN was proportional to the fluorescence intensity. Drew the curve with Graphpad Prism and analyse EC50 of the compounds.

Test [2] concerns the target STING (Homo sapiens, UniProt Q86WV6). The test is described as follows: STING IFNβ secretion assay (THP-1 cells, AlphaLISA IFN-β kit). The following applies: 5 h incubation, secretion of IFN-β. The class given is cell-based. The procedure:
Plated 40 uL THP-1 cells (ATCC) as 16000 cells/well in a 96 well-plate (Corning, 3596). 3-folds dilution compounds were added to appropriate wells. The compounds were diluted with buffer (RPMI1640+2 mM L-glutamine+1× non-essential amino acids+1 mM sodium pyruvate+0.5% Fetal bovine serum), and the top dose of the compound was 100 μM, minimum dose was 1.23 μM. After 5 h incubation, […] supernant was added to 384-well plate (Greiner, Cat: 784075) and the secretion of IFN-β was detected with AllphaLISA IFN-β kit(PerkinElmer, Cat:AL577C). 1× buffer was prepared to dilute the receptor and donor, and then 4 μL 20 μg/mL Anti-pIFNβ AlphaLISA receptor was added to every well. After 30 mins incubation at room temperature, 4 μL 2 nM biotinylated Anti-pIFNβ antibody was added to a 384 well-plate, incubated overnight at 4° C. 10 μL 40 µg/mL Streptavidin (SA) donor which was diluted with 1×buffer was added, and then incubated at room temperature for 30 min. Fluorescence was read with TECAN. The expressed level of IFN-β was proportional to the fluorescence intensity. Drew the curve with Graphpad Prism and analysed EC50 of the compounds.
On the technique in general: Alpha assays give light when donor and acceptor beads are brought close together.

STING, sequence (Q86WV6 whole entry): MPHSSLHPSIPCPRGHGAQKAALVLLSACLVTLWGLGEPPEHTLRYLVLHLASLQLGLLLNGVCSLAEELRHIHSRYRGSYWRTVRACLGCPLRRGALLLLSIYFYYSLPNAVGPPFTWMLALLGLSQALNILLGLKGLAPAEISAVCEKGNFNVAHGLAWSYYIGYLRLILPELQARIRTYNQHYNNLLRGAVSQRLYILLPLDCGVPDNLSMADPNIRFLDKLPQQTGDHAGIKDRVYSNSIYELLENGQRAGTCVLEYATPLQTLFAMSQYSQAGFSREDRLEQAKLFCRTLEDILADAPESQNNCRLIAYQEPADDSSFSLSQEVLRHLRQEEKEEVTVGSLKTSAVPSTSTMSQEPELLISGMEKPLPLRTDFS

`Nc1nc2c(ncn2[C@@H]2O[C@@H]3COP(=O)(S)O[C@H]4[C@@H](O)[C@H](n5ccc6nccn6c5=O)O[C@@H]4COP(=O)(S)O[C@@H]2[C@@H]3O)c(=O)[nH]1` (some centres unmarked) [Compound 13-p1] registered an EC50 in test [1] of 188 µM.

For the molecule `Nc1ncnc2c1ncn2[C@@H]1O[C@@H]2COP(=O)(S)O[C@@H]3[C@H](O)[C@@H](COP(=O)(S)O[C@H]2[C@H]1O)O[C@H]3n1c(=O)sc2c(N)ncnc21` (some centres unmarked) [Compound 2-p1], in test [1], the midpoint of the response, the EC50, lay at 45.8 µM.

With `Nc1nc2c(ncn2[C@@H]2O[C@@H]3COP(=O)(S)O[C@H]4[C@@H](O)[C@H](n5cnc6ccccc6c5=O)O[C@@H]4COP(=O)(S)O[C@@H]2[C@@H]3O)c(=O)[nH]1` (some centres unmarked) [Compound 10-p1], in test [1], a half-maximal effect (EC50) was put at 70.7 µM.

Molecule `Nc1ncnc2c1ncn2[C@@H]1O[C@@H]2COP(=O)(S)O[C@@H]3C(O)[C@@H](COP(O)(=S)O[C@H]2[C@H]1O)O[C@H]3n1cnc2c(N)ncnc21` (some centres unmarked) [Ref. 1, MLRR-CDA, reference compound] gave an EC50 in test [1] of 2.94 µM. This EC50 lies about 24-fold lower than the previous one.

Regarding `Nc1ncnc2c1ncn2C1OC2COP(=O)(S)OC3C(O)C(COP(=O)(S)OC2C1F)OC3n1c(=O)sc2c(N)ncnc21` (centres unmarked) [Compound 4-p3], the EC50 stood at 94.4 µM in test [2] and 0.417 µM in test [1].

In test [1], `CO[C@H]1[C@H]2OP(=O)(S)OC[C@H]3O[C@@H](n4cnc5c(N)ncnc54)[C@H](F)[C@@H]3OP(=O)(S)OC[C@H]1O[C@H]2n1c(=O)sc2c(N)ncnc21` (some centres unmarked) [Compound 6-p1] showed an EC50 of 2.27 µM.

Take `Nc1nc2c(ncn2[C@@H]2O[C@@H]3COP(=O)(S)O[C@H]4[C@@H](O)[C@H](n5cnc6ncccc6c5=O)O[C@@H]4COP(=O)(S)O[C@@H]2[C@@H]3O)c(=O)[nH]1` (some centres unmarked) [Compound 11-p1]: the EC50 in test [1] worked out at 60.8 µM.

Regarding `Nc1ncnc2c1ncn2C1OC2COP(=O)(S)OC3C(O)C(COP(=O)(S)OC2C1F)OC3n1c(=O)sc2c(N)ncnc21` (centres unmarked) [Compound 4-p2], the EC50 came to 36.2 µM in test [2] and 0.625 µM in test [1] (Homo sapiens, THP1-Dual).

In test [1], `Nc1ncnc2c1ncn2[C@@H]1O[C@@H]2COP(=O)(S)O[C@@H]3[C@H](O)[C@@H](COP(=O)(S)O[C@H]2[C@H]1O)O[C@H]3n1c(=O)[nH]c2c(N)ncnc21` (some centres unmarked) [Compound 1-p1] came in with an EC50 of over 10 µM.

In general, EC50 refers to the concentration at which the effect is half-maximal. Low values mean an effect from little substance, high ones a need for much substance.
